Measured values reported in patent US10167257B2, “Indole derivatives for use in medicine” (IOmet Pharma Ltd., priority 2014, dated 2019).

What was measured:
[1] = target: T1, TDO (A172 cells) (Homo sapiens, UniProt P48775); assay: TDO cell-based assay (A172), kynurenine production; details: A172 human glioblastoma cells, 500 μM L-Trp, 48 h, kynurenine by absorbance at 490 nm
T1 construct: This assay utilised cancer cells which expressed either TDO or IDO; host or cells: A172 human glioblastoma cells
In short: (§1)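 Kynurenine output was read at 490 nm after 5 min with 1% Ehrlich's reagent, using supernatants from 48 h, 37 °C cultures containing 500 μM L-Trp and test compound. TDO activity came from A172 cells. IDO activity came from SKOV-3 cells, whose expression was induced by adding 500 ng/ml IFNγ.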

[2] = target: T2, IDO (SKOV-3 cells) (Homo sapiens, UniProt P14902); assay: IDO cell-based assay (SKOV-3, IFNγ-induced), kynurenine production; details: SKOV-3 ovary adenocarcinoma cells, IFNγ 500 ng/ml, 500 μM L-Trp, 48 h, kynurenine by absorbance at 490 nm
T2 construct: This assay utilised cancer cells which expressed either TDO or IDO; host or cells: SKOV-3 ovary adenocarcinoma cells, IFNγ-induced
In short: as §1

T2 sequence (P14902 whole entry): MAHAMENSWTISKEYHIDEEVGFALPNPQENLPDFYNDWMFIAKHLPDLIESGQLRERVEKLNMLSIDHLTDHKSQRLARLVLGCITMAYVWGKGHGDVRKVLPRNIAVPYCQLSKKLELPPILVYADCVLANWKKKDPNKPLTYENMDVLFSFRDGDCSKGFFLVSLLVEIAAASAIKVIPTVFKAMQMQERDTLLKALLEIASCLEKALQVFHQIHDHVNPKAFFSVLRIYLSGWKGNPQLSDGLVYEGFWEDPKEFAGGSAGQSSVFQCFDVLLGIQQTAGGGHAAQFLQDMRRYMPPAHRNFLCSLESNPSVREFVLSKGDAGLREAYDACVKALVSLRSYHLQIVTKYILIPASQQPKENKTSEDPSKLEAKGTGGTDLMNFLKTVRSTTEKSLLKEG
T1 sequence (P48775 whole entry): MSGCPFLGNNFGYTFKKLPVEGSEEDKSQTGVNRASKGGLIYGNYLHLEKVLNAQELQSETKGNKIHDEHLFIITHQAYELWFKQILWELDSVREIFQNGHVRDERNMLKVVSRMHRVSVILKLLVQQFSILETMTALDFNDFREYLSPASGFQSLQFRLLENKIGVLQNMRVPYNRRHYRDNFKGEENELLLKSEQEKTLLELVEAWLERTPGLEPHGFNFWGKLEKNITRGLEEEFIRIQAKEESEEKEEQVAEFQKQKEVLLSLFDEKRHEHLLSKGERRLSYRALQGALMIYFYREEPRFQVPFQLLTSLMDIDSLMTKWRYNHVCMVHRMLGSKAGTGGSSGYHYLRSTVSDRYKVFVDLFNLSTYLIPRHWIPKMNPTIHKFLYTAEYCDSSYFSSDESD

SMILES	TDO cellular assay (A172) pIC50 [1]	IDO cellular assay (SKOV3) pIC50 [2]
O=C(NCc1ccc(F)c(Cl)c1)c1cc2cc(Cl)ccc2[nH]1 [Compound 35]	− (− = pIC50 <4.50)	+ (+ = pIC50 4.50-<5.00)
O=C(Nc1cccc2ncccc12)c1cc2ccc(F)cc2[nH]1 [Compound 64]	++ (++ = pIC50 5.00-<5.50)	++ (++ = pIC50 5.00-<5.50)
COc1ccc2cc(C(=O)Nc3cccc4ncccc34)[nH]c2c1 [Compound 7]	− (− = pIC50 <4.50)	+++ (+++ = pIC50 ≥5.50)
O=C(NC1(c2ccccc2)COC1)c1cc2cc(Cl)c(F)cc2[nH]1 [Compound 210]	+ (+ = pIC50 4.50-<5.00)	+++ (+++ = pIC50 ≥5.50)
Cc1c(C(=O)N[C@@H](C)c2ccccc2)[nH]c2ccc(F)cc12 [Compound 60]	+ (+ = pIC50 4.50-<5.00)	+ (+ = pIC50 4.50-<5.00)
Cn1cc(C2(NC(=O)c3cc4cc(Cl)ccc4[nH]3)CCOCC2)cn1 [Compound 266]	− (− = pIC50 <4.50)	+++ (+++ = pIC50 ≥5.50)
CC(NC(=O)c1cc2cc(F)ccc2[nH]1)c1ccncc1 (centres unmarked) [Compound 58]	− (− = pIC50 <4.50)	++ (++ = pIC50 5.00-<5.50)
CC(NC(=O)c1cc2c(F)c(Cl)ccc2[nH]1)c1cnn(C)c1 (centres unmarked) [Compound 193]	− (− = pIC50 <4.50)	+++ (+++ = pIC50 ≥5.50)
C[C@@H](NC(=O)c1cc2ccc(C(F)F)cc2[nH]1)c1ccccc1 [Compound 180]	− (− = pIC50 <4.50)	+ (+ = pIC50 4.50-<5.00)
CCOc1ccc2[nH]c(C(=O)NC3(c4ccccc4)CC3)cc2c1 [Compound 271]	++ (++ = pIC50 5.00-<5.50)	+++ (+++ = pIC50 ≥5.50)
Cn1cc(C2(NC(=O)c3cc4cc(Cl)ccc4[nH]3)CCCCC2)cn1 [Compound 251]	− (− = pIC50 <4.50)	+++ (+++ = pIC50 ≥5.50)
COc1ccc(-c2noc(CNC(=O)c3cc4cc(Cl)ccc4[nH]3)n2)cc1OC [Compound 113]	− (− = pIC50 <4.50)	+++ (+++ = pIC50 ≥5.50)
Cn1cc(C2(NC(=O)c3cc4cc(Cl)c(F)cc4[nH]3)CC2)cn1 [Compound 204]	− (− = pIC50 <4.50)	+++ (+++ = pIC50 ≥5.50)
O=C(NC1(c2ccn(-c3ccccc3)n2)CC1)c1cc2cc(Cl)ccc2[nH]1 [Compound 143]	+ (+ = pIC50 4.50-<5.00)	+++ (+++ = pIC50 ≥5.50)
O=C(NC1(c2ccccc2)COC1)c1cc2ccc(C(F)F)cc2[nH]1 [Compound 218]	− (− = pIC50 <4.50)	+ (+ = pIC50 4.50-<5.00)
O=C(NC1(c2cccnc2)CC1)c1cc2cc(Cl)ccc2[nH]1 [Compound 153]	− (− = pIC50 <4.50)	+++ (+++ = pIC50 ≥5.50)
COc1ccc2cc(C(=O)NC3(c4ccccc4)COC3)[nH]c2c1 [Compound 169]	− (− = pIC50 <4.50)	++ (++ = pIC50 5.00-<5.50)
Cn1cc(C2(NC(=O)c3cc4cc(Cl)cc(F)c4[nH]3)CC2)cn1 [Compound 205]	− (− = pIC50 <4.50)	+++ (+++ = pIC50 ≥5.50)
CC(NC(=O)c1cc2cc(Cl)ccc2[nH]1)c1ccc(F)cc1 (centres unmarked) [Compound 36]	+ (+ = pIC50 4.50-<5.00)	+++ (+++ = pIC50 ≥5.50)
CC(NC(=O)c1cc2cc(Cl)ccc2[nH]1)c1ccn(-c2ccccc2)n1 (centres unmarked) [Compound 173]	− (− = pIC50 <4.50)	+++ (+++ = pIC50 ≥5.50)
CC(C)NC(=O)c1cc2cc(Cl)ccc2[nH]1 [Compound 67]	++ (++ = pIC50 5.00-<5.50)	+ (+ = pIC50 4.50-<5.00)
C[C@H](NC(=O)c1cc2cc(Cl)ccc2[nH]1)c1ccccc1 [Compound 50]	+++ (+++ = pIC50 ≥5.50)	+++ (+++ = pIC50 ≥5.50)
C[C@@H](NC(=O)c1cc2cc(OC(F)(F)F)ccc2[nH]1)c1ccccc1 [Compound 247]	− (− = pIC50 <4.50)	+++ (+++ = pIC50 ≥5.50)
CC(NC(=O)c1cc2cc(Cl)ccc2[nH]1)C1CC1 (centres unmarked) [Compound 94]	+ (+ = pIC50 4.50-<5.00)	++ (++ = pIC50 5.00-<5.50)
Cn1cc(C2(NC(=O)c3cc4cc(C#N)ccc4[nH]3)COC2)cn1 [Compound 236]	− (− = pIC50 <4.50)	+++ (+++ = pIC50 ≥5.50)

SMILES	TDO cellular assay (A172) pIC50 [1]	IDO cellular assay (SKOV3) pIC50 [2]
O=C(NC1Cc2ccccc2C1)c1cc2cc(Cl)ccc2[nH]1 [Compound 116]	++ (++ = pIC50 5.00-<5.50)	− (− = pIC50 <4.50)
O=C(NC1(c2ccccc2)CC1)c1cc2cc(Cl)cnc2[nH]1 [Compound 164]	− (− = pIC50 <4.50)	+++ (+++ = pIC50 ≥5.50)
CCc1ccc2[nH]c(C(=O)NC(C)c3cnn(C)c3)cc2c1 (centres unmarked) [Compound 243]	− (− = pIC50 <4.50)	+++ (+++ = pIC50 ≥5.50)
CC(NC(=O)c1cc2cc(Cl)ccc2[nH]1)C1CCOCC1 (centres unmarked) [Compound 103]	− (− = pIC50 <4.50)	+++ (+++ = pIC50 ≥5.50)
Cc1nc(C2(NC(=O)c3cc4cc(C#N)ccc4[nH]3)CC2)co1 [Compound 226]	− (− = pIC50 <4.50)	+++ (+++ = pIC50 ≥5.50)
CC(NC(=O)c1cc2cc(Cl)ccc2[nH]1)c1cnn(-c2ccccc2F)c1 (centres unmarked) [Compound 115]	+ (+ = pIC50 4.50-<5.00)	+++ (+++ = pIC50 ≥5.50)
Cc1cc(C(C)NC(=O)c2cc3cc(Cl)ccc3[nH]2)no1 (centres unmarked) [Compound 234]	++ (++ = pIC50 5.00-<5.50)	+++ (+++ = pIC50 ≥5.50)
CC(Cc1ccccc1)NC(=O)c1cc2cc(Cl)ccc2[nH]1 (centres unmarked) [Compound 86]	+++ (+++ = pIC50 ≥5.50)	+++ (+++ = pIC50 ≥5.50)
O=C(NC1(c2ccc(Cl)cc2)CC1)c1cc2cc(Cl)ccc2[nH]1 [Compound 148]	+ (+ = pIC50 4.50-<5.00)	+++ (+++ = pIC50 ≥5.50)
Cc1nc(C(C)NC(=O)c2cc3cc(Cl)ccc3[nH]2)no1 (centres unmarked) [Compound 212]	+ (+ = pIC50 4.50-<5.00)	++ (++ = pIC50 5.00-<5.50)
Cc1noc(C(C)NC(=O)c2cc3cc(C#N)ccc3[nH]2)n1 (centres unmarked) [Compound 221]	− (− = pIC50 <4.50)	+ (+ = pIC50 4.50-<5.00)
CC(CN(C)S(C)(=O)=O)NC(=O)c1cc2cc(Cl)ccc2[nH]1 (centres unmarked) [Compound 154]	− (− = pIC50 <4.50)	+ (+ = pIC50 4.50-<5.00)
CC(NC(=O)c1cc2ccncc2[nH]1)c1ccccc1 (centres unmarked) [Compound 81]	− (− = pIC50 <4.50)	+ (+ = pIC50 4.50-<5.00)
COc1ccc(C(C)NC(=O)c2cc3cc(Cl)ccc3[nH]2)cc1 (centres unmarked) [Compound 70]	++ (++ = pIC50 5.00-<5.50)	+++ (+++ = pIC50 ≥5.50)
Cc1ccc2[nH]c(C(=O)NC(C)c3ccccc3)cc2c1 (centres unmarked) [Compound 26]	++ (++ = pIC50 5.00-<5.50)	+++ (+++ = pIC50 ≥5.50)
CC(NC(=O)c1cc2cc(OC(F)(F)F)ccc2[nH]1)c1cnn(C)c1 (centres unmarked) [Compound 249]	+ (+ = pIC50 4.50-<5.00)	+++ (+++ = pIC50 ≥5.50)
O=C(NC1(c2ccccc2)COC1)c1cc2c(F)c(Cl)ccc2[nH]1 [Compound 220]	− (− = pIC50 <4.50)	+++ (+++ = pIC50 ≥5.50)
C[C@H](NC(=O)c1cc2ccc(F)cc2[nH]1)c1ccccc1 [Compound 45]	− (− = pIC50 <4.50)	+ (+ = pIC50 4.50-<5.00)
O=C(NC1(c2ccc(F)cc2)CC1)c1cc2cc(Cl)ccc2[nH]1 [Compound 138]	− (− = pIC50 <4.50)	+++ (+++ = pIC50 ≥5.50)
COCCN(C)C(=O)c1ccc(C(C)NC(=O)c2cc3cc(Cl)ccc3[nH]2)cc1 (centres unmarked) [Compound 93]	+ (+ = pIC50 4.50-<5.00)	+++ (+++ = pIC50 ≥5.50)
CC(NC(=O)c1cc2ccccc2[nH]1)c1ccc(Cl)cc1 (centres unmarked) [Compound 16]	+ (+ = pIC50 4.50-<5.00)	+++ (+++ = pIC50 ≥5.50)
CCC(NC(=O)c1cc2cc(Cl)ccc2[nH]1)c1ccccc1 (centres unmarked) [Compound 114]	− (− = pIC50 <4.50)	+++ (+++ = pIC50 ≥5.50)
CCOc1ccc2[nH]c(C(=O)NC(C)c3cnn(C)c3)cc2c1 (centres unmarked) [Compound 272]	− (− = pIC50 <4.50)	+++ (+++ = pIC50 ≥5.50)
Cc1nnc(C2(NC(=O)c3cc4cc(Cl)ccc4[nH]3)CC2)[nH]1 [Compound 233]	− (− = pIC50 <4.50)	+ (+ = pIC50 4.50-<5.00)
